We go through seven molecules from patent US11066436B2, “5′-phosphorothiolate mRNA 5′-end (cap) analogs, mRNA comprising the same, method of obtaining and uses thereof” (Uniwersytet Warszawski, priority 2016, dated 2021).

The target of test [1] is T1, Dcp1/2 decapping enzyme (SpDcp1/2) (Schizosaccharomyces pombe, UniProt O13828).
T1 construct: made in house
T1 sequence (O13828 1-243 limits assumed): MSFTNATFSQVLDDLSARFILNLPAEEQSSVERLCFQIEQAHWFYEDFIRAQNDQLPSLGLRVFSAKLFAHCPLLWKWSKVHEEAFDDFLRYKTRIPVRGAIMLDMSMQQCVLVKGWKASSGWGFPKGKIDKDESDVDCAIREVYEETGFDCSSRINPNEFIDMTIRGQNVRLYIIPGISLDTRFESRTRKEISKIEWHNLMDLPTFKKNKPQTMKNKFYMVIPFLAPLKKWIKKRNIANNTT
T1 sequence (Q9P805 1-127 partner): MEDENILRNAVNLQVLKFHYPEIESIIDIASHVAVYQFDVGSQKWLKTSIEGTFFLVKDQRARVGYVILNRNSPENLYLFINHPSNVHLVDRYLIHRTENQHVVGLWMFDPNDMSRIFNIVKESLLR
Briefly: Susceptibility of short capped RNAs to degradation with the Dcp1/2 enzyme. The conditions noted are these: RNA capped with the analog; 3.5 nM Dcp1/2, time point 15 min, normalized to 0′ time. The format is biochemical. The source says: Test 4. Susceptibility Study of Short RNA Molecules Comprising Cap Analogs at the 5′ End to Degradation with the Dcp1/2 Enzyme.
The aim of this study was to check whether incorporation of selected 5′-phosphothioate cap analogs to 5′ end of RNA could influence susceptibility of thus prepared transcripts towards Dcp1/2 decapping enzyme activity. Schizosaccharomyces pombe recombinant protein in the form of a heterodimer Dcp1/2 was obtained as described previously (Floor, Jones et al. 2010). The trancripts utilized in this assay were obtained by transcription in vitro using RNA SP6 polymerase (New England BioLabs). Annealed oligonucleotides: […] (SEQ ID NO.: 1), and […] (SEQ ID NO: 2) were used as a template in in vitro transcription, the oligonucleotides comprising the promoter sequence for SP6 polymerase (ATTTAGGTGACACTATAGA (SEQ ID NO: 3)) allow to obtain 35 nt long RNAs having a sequence of […] (SEQ ID NO: 4), however 5′ end capped RNAs are 36 nt long. Typical in vitro transcription reaction was performed in volume 20 μl and was incubated in 40° C. for 2 hours and contained the following: 1U SP6 polymerase, 1 U RiboLock RNase Inhibitor (ThermoFisher Scientific), 0.5 mM ATP/CTP/UTP, 0.125 mM GTP, 1.25 mM dinucleotide cap analog and 0.1 μM template. Following 2 hours incubation, 1U DNase I (Ambion) was added to the reaction mixture and incubation was continued for 30 min in 37° C., after that EDTA was added to 25 mM final concentration. Obtained RNAs were purified using RNA Clean & Concentrator-25 (Zymo Research). Then the quality of the synthesized RNA was determined on a denaturating 15% polyacrylamide gel. The concentration of the RNA was in turn evaluated spectrophotometrically. […] RNA having a cap at the 5′ end was 26 nt long. The reaction of cleaving the 3′ ends was as follows: 1 μM of RNA was incubated with 1 μM of DNazyme 10-23 in a mixture containing 50 mM MgCl2 and 50 mM Tris-HCl pH 8.0 for 1 hour in 37° C. (Coleman et al., 2004).
For enzymatic tests 20 ng of each RNA was used, which were incubated with 3.5 nM Dcp1/2 enzyme in buffer containing 50 mM Tris-HCl pH 8.0, 50 mM NH4Cl, 0.01% NP-40, 1 mM DTT, and 5 mM MgCl2. Reactions were performed at 37° C. in the final volume of 25 μl. The reaction was stopped after 0, 5, 15 and 30 min by adding an equal amount of a mixture of 5 M urea, 44% formamide, 20 mM EDTA, 0.03% bromophenol blue, 0.03% xylene cyanol. Reaction products were resolved on denaturing 15% polyacrylamide gels, after the electrophoretic separation was completed, the gel was stained with SYBR Gold (Invitrogen) and visualized using a Storm 860 PhosphorImager (GE Healthcare). Quantification of the obtained results was performed with ImageQuant software (Molecular Dynamics). Representative results of this assay were presented on FIG. 8, FIG. 9 and also in Table 6.

Test [2] deals with rabbit reticulocyte lysate. Briefly: Translational efficiency of capped Renilla luciferase mRNAs in rabbit reticulocyte lysate. The format is biochemical. The note with it: Renilla luciferase mRNA capped with the analog; normalized to m^7GpppG-capped mRNA; biological triplicates. The method, then:
Test 5. Study on the Effect of the Presence of Novel Cap Analogs on Translational Efficiency of mRNAs in Rabbit Reticulocyte Lysate.
The aim of this study was to check the effect of introducing novel cap analogs at the 5′ end of mRNAs on translation efficiency. For this purpose series of Renilla luciferase encoding mRNAs, and differing in the cap structure at the 5′ end were prepared. The transcripts used for this test were obtained by in vitro transcription reaction using SP6 RNA polymerase. As the template for the in vitro transcription a PCR product was used, prepared using primers […] (SEQ ID NO: 6) and […] (SEQ ID NO: 7) and the hRLuc-pRNA2(A)128 plasmid (Williams et al. 2010). PCR reaction thus conducted allowed to introduce promoter sequence for SP6 polymerase upstream of the sequence encoding Renilla luciferase. The transcription reaction itself was similar to the short RNA synthesis described above (Test 4). The reaction was conducted for 2 hours in 20 μl in 40° C. and contained the following: 1U SP6 polymerase, 1 U RiboLock RNase Inhibitor (ThermoFisher Scientific), 0.5 mM ATP/CTP/UTP, 0.125 mM GTP, 1.25 mM dinucleotide cap analog and […] of a template. Following 2 hours incubation, 1U DNase I (Ambion) was added and incubation was continued for 30 min in 37° C., after that EDTA was added to 25 mM final concentration. Obtained mRNAs were purified using NucleoSpin RNA Clean-up XS (Macherey-Nagel). Quality of the synthetized RNA was checked on a denaturing 15% polyacrylamide gel. The RNA concentrations were determined spectrophotometrically.
An in vitro translation reaction was performed in rabbit reticulocyte lysate (RRL, Promega) in conditions determined for cap-dependent translation (Rydzik et al., 2009). A typical reaction mixture (10 μl) contained: 40% RRL lysate, 0.01 mM mixture of amino acids (Promega), 1.2 mM MgCl2, 170 mM potassium acetate and a Renilla luciferase encoding mRNA with an appropriate cap analog at the 5′ end, the mixture being incubated in 37° C. for 1 hour. Four different concentrations of mRNAs: 0.1 ng/μl, 0.25 ng/μl, 0.5 ng/μl, 0.75 ng/μl were used in the experiment. Activity of synthesized luciferase was measured using Dual-Luciferase Reporter Assay System (Promega) in a microplate reader Synergy H1 (BioTek). Obtained results were analyzed in Origin (Gambit) software, and theoretical curve was fitted to experimental data, wherein the slope of obtained curve represents translation efficiency. Representative data were presented on FIG. 10, whereas average translation efficiency obtained for biological triplicates is presented in Table 6.

The next test has as its system mice with SMA. The note with it: reported by Van Meerbeke, Gibbs et al.; cited from earlier work.
Test [3] deals with T2, human DcpS enzyme (hDcpS) (Homo sapiens, UniProt Q96C86).
T2 construct: made in house
T2 sequence (Q96C86 1-337): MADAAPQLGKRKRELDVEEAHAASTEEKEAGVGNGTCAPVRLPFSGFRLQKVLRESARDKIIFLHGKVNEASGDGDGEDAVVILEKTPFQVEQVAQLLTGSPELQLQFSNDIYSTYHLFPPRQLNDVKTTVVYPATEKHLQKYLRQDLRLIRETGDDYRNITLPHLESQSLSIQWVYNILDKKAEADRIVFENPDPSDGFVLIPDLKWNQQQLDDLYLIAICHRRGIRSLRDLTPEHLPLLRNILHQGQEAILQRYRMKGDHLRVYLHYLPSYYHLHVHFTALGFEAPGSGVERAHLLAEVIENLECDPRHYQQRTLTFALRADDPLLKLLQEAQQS
Briefly: Susceptibility of cap analogs to degradation by DcpS enzyme (RP-HPLC). The format is biochemical. The note with it: cap analog 20 μM, hDcpS 100 nM, RP-HPLC. The method, then: Test 1. The Susceptibility Study of Analogs to Degradation by DcpS Enzyme.
The aim of the test was to check if new 5′-thiophosphate cap analogs are hydrolyzed by human DcpS enzyme (hDcpS). Recombinant human protein encoding DcpS enzyme was expressed as described previously (Kowalska, Lewdorowicz et al. 2008). The susceptibility of new analogs to hDcpS hydrolysis is tested in 50 mM Tris-HCl buffer containing 200 mM KCl and 0.5 mM EDTA. Reaction mixture includes the tested cap analog (20 μM) and hDcpS enzyme (100 nM) in 400 μl of buffer. At the appropriate intervals 100 μl sample is collected from the reaction mixture. Sample is incubated at 98° C. for 2.5 min, and then cooled to 0° C. and analyzed on RP-HPLC under conditions described in general informations. In tests also commercially available inhibitor of DcpS was tested, the compound RG3039 (no. 000) (https://www.mda.org/quest/fda-approves-phase-1-clinical-trial-rg3039-sma), GppSG (no. 19), GpppSG (no. 20), as well m^7GpppG (no. 0) and m^7Gpp (no. 00) as controls. Exemplary results obtained are shown on FIG. 5 and Table 5.

For the molecule `Nc1nc2c(ncn2[C@@H]2O[C@H](COP(=O)(O)OP(=O)(O)OP(=O)(O)OC[C@H]3O[C@@H](n4cnc5c(=O)[nH]c(N)nc54)[C@H](O)[C@@H]3O)[C@@H](O)[C@H]2O)c(=O)[nH]1` [GpppG], the Dcp1/2 susceptibility in test [1] was determined as 0. The relative translation efficiency in test [2] is on record as 0.05 ± 0.01.
On to `Nc1nc(N)c2c(OCC3CCN(Cc4c(Cl)cccc4Cl)CC3)cccc2n1` [No. 000], for which the “motor function in mice with SMA” value in the test with mice with SMA is “improves motor function”.
In the case of `Cn1c[n+]([C@@H]2O[C@H](COP(=O)(O)OP(=O)([O-])OP(=O)(O)OC[C@H]3O[C@@H](n4cnc5c(=O)[nH]c(N)nc54)[C@H](O)[C@@H]3O)[C@@H](O)[C@H]2O)c2nc(N)[nH]c(=O)c21` [No. 0], the Dcp1/2 susceptibility in test [1] came out at 0.69. Besides, the DcpS susceptibility entry in test [3] is recorded as “hydrolyzable”. Also, the relative translation efficiency in test [2] was determined as 1.00.
`COC1C(O)[C@@H](CSP(=O)([O-])OP(=O)(O)OP(=O)(O)OC[C@H]2O[C@@H](n3cnc4c(=O)[nH]c(N)nc43)C(O)C2O)O[C@H]1n1c[n+](C)c2c(O)nc(N)nc21` (some centres unmarked) [No. 26, P1-(2′-O-methyl-7-methyl-5′-deoxy-5′-thioguanosin-5′-yl)-P3-guanosin-5′-yl triphosphate] displayed a Dcp1/2 susceptibility in test [1] of 0.07. In test [2], the relative translation efficiency came out at 1.73 ± 0.24.
For `COC1C(O)[C@@H](COP(=O)(O)OP(=O)(O)OP(=O)([O-])SC[C@H]2O[C@@H](n3cnc4c(=O)[nH]c(N)nc43)C(O)C2O)O[C@H]1n1c[n+](C)c2c(O)nc(N)nc21` (some centres unmarked) [No. 38, P1-(2′-O-methyl-7-methyl-guanosin-5′-yl)-P3-(5′-deoxy-5′-thioguanosin-5′-yl) triphosphate] the same measures were 0.52 and 2.23 ± 0.31.
For `CO[C@@H]1[C@H](O)[C@@H](COP(=O)(O)OP(=O)([O-])OP(=O)(O)OC[C@H]2O[C@@H](n3cnc4c(=O)[nH]c(N)nc43)[C@H](O)[C@@H]2O)O[C@H]1n1c[n+](C)c2c(O)nc(N)nc21` [m2^7,2′-oGpppG] the same measures were 0.52 and 1.56 ± 0.14.
For `COC1C(O)C(COP(=O)(O)OP(=O)(S)OP(=O)(O)OCC2OC(n3cnc4c(=O)[nH]c(N)nc43)C(O)C2O)OC1n1c[n+](C)c2c(=O)[nH]c(N)nc21` (centres unmarked) [m2^7,2′-oGppspG D2] the same measures were 0.43 and 3.45 ± 0.42.
